Assay results from ChEMBL document CHEMBL2062504, “Diterpenoid alkaloids from the lateral root of Aconitum carmichaelii” (J Nat Prod, 2012).
Active and inactive are the calls of the source.

Experiments:
MCF7 = assay: Cytotoxicity against human MCF7 cells at 10 uM after 96 hrs by MTT assay; format: functional, cell-based
[1] = tested on: Peritoneal macrophage cell; assay: Antiinflammatory activity in mouse peritoneal macrophages assessed as inhibition of nitric oxide production at 10 uM; format: functional, cell-based
Bel-7402 = assay: Cytotoxicity against human Bel7402 cells at 10 uM after 96 hrs by MTT assay; format: functional, cell-based
Liver microsomes = assay: Antioxidant activity in rat liver microsome assessed as inhibition of FeSO4-induced lipid peroxidation at 10 uM incubated for 15 mins prior to FeSO4-challenge measured after 15 mins by modified thiobarbituric acid method; format: functional
HCT-8 = assay: Cytotoxicity against human HCT8 cells at 10 uM after 96 hrs by MTT assay; format: functional, cell-based
BGC-823 = assay: Cytotoxicity against human BGC823 cells at 10 uM after 96 hrs by MTT assay; format: functional, cell-based
A549 = assay: Cytotoxicity against human A549 cells at 10 uM after 96 hrs by MTT assay; format: functional, cell-based
WB-F344 = assay: Hepatoprotective activity against DL-galactosamine-induced cell death in rat WB-F344 cells at 10 uM incubated for 1 hr prior to DL-galactosamine-challenge measured after 24 hrs by MTT assay; format: functional, cell-based
KETR3 = assay: Cytotoxicity against human Ketr3 cells at 10 uM after 96 hrs by MTT assay; format: functional, cell-based

CCN1C[C@]2(COC)CC[C@H](OC)[C@]34C1[C@H]([C@H](OC)[C@H]23)[C@@]1(O)C[C@H](OC)[C@@]2(O)C[C@@H]4[C@@H]1[C@H]2OC(=O)c1ccccc1
inactive: Activity (MCF7) | inhibition [1] | Activity (Bel-7402) | inhibition (Liver microsomes) | Activity (HCT-8) | Activity (BGC-823) | Activity (A549) | Activity (WB-F344) | Activity (KETR3)

CCN1C[C@]2(COC)CC[C@H](O)[C@]34C1[C@H]([C@H](OC)[C@H]23)[C@]1(O)[C@H]2[C@@H](OC(=O)/C=C/c3ccccc3)[C@H](C[C@H]24)[C@@H](OC)[C@@H]1O
inactive: Activity (MCF7) | inhibition [1] | Activity (Bel-7402) | inhibition (Liver microsomes) | Activity (HCT-8) | Activity (BGC-823) | Activity (A549) | Activity (WB-F344) | Activity (KETR3)

C=C1C[C@]23C4[C@@H](OC(=O)[C@@H](C)CC)[C@H]1[C@@H](O)[C@H]2[C@]12C[C@@H](OC(=O)CC)C[C@]5(C)[C@H]1[C@H]([C@@H]3O)[N+](C)([C@H]42)[C@H]5O
inactive: Activity (MCF7) | inhibition [1] | Activity (Bel-7402) | inhibition (Liver microsomes) | Activity (HCT-8) | Activity (BGC-823) | Activity (A549) | Activity (WB-F344) | Activity (KETR3)

CCO[C@]12[C@H]3[C@@H](OC(=O)c4ccccc4)[C@H](C[C@H]3[C@@]34C5[C@@H]1[C@H](O)[C@@H]3[C@@](COC)(CC[C@@H]4OC)CN5CC)[C@@H](OC)[C@@H]2O
inactive: Activity (MCF7) | inhibition [1] | Activity (Bel-7402) | inhibition (Liver microsomes) | Activity (HCT-8) | Activity (BGC-823) | Activity (A549) | Activity (WB-F344) | Activity (KETR3)

COC[C@]12CN(C)C3[C@@H]4[C@H](OC)[C@H]1[C@@]3([C@@H](OC)C[C@H]2O)[C@]1(O)C[C@@]2(O)[C@H](OC(=O)c3ccccc3)[C@@H]1[C@]4(O)[C@@H](O)[C@H]2OC
inactive: Activity (MCF7) | inhibition [1] | Activity (Bel-7402) | inhibition (Liver microsomes) | Activity (HCT-8) | Activity (BGC-823) | Activity (A549) | Activity (WB-F344) | Activity (KETR3)

CCN1C[C@]2(COC)CC[C@H](OC)[C@]34C1[C@H](C[C@H]23)[C@]1(O)[C@H]2[C@@H](OC(=O)c3ccccc3)[C@H](C[C@H]24)[C@@H](OC)[C@@H]1O
inactive: Activity (MCF7) | inhibition [1] | Activity (Bel-7402) | inhibition (Liver microsomes) | Activity (HCT-8) | Activity (BGC-823) | Activity (A549) | Activity (WB-F344) | Activity (KETR3)

COC[C@]12CN(C)C3[C@@H]4[C@H](OC)[C@H]1[C@@]3([C@@H](OC)C[C@H]2O)[C@@H]1C[C@@]2(O)[C@H](OC(=O)c3ccccc3)[C@@H]1[C@]4(O)[C@@H](OC(C)=O)[C@@H]2OC
inactive: Activity (MCF7) | inhibition [1] | Activity (Bel-7402) | inhibition (Liver microsomes) | Activity (HCT-8) | Activity (BGC-823) | Activity (A549) | Activity (WB-F344) | Activity (KETR3)

COC[C@]12CN(C)C3[C@@H]4[C@H](OC)[C@H]1[C@@]3([C@@H](OC)C[C@H]2OC(C)=O)[C@@H]1C[C@@]2(O)[C@H](OC(=O)c3ccccc3)[C@@H]1[C@]4(O)[C@@H](OC(C)=O)[C@@H]2OC
inactive: Activity (MCF7) | inhibition [1] | Activity (Bel-7402) | inhibition (Liver microsomes) | Activity (HCT-8) | Activity (BGC-823) | Activity (A549) | Activity (WB-F344) | Activity (KETR3)

CCN1C[C@]2(COC)CC[C@H](O)[C@]34C1[C@H](C[C@H]23)[C@]1(O)[C@H]2[C@@H](OC(=O)c3ccccc3)[C@H](C[C@H]24)[C@@H](OC)[C@@H]1O
inactive: Activity (MCF7) | inhibition [1] | Activity (Bel-7402) | inhibition (Liver microsomes) | Activity (HCT-8) | Activity (BGC-823) | Activity (A549) | Activity (WB-F344) | Activity (KETR3)

COC[C@]12CN(C)C3[C@@H]4[C@H](OC)[C@H]1[C@@]3([C@@H](OC)C[C@H]2O)[C@]1(O)C[C@@]2(O)[C@H](OC(=O)c3ccccc3)[C@@H]1[C@]4(OC)[C@@H](O)[C@@H]2OC (stereo in doubt; 8)
inactive: Activity (MCF7) | inhibition [1] | Activity (Bel-7402) | inhibition (Liver microsomes) | Activity (HCT-8) | Activity (BGC-823) | Activity (A549) | Activity (WB-F344) | Activity (KETR3)

C=C1C[C@@]23C[C@H]4[C@@H]5[C@@]6(C)C[C@H](OC(=O)CC)C[C@@]57[C@@H]2[C@H](O)[C@@H]1[C@H](OC(=O)[C@@H](C)CC)C3[C@H]7[N+]4(C)[C@H]6O
inactive: Activity (MCF7) | inhibition [1] | Activity (Bel-7402) | inhibition (Liver microsomes) | Activity (HCT-8) | Activity (BGC-823) | Activity (A549) | Activity (WB-F344) | Activity (KETR3)

CCN1C[C@]2(COC)[C@H](O)C[C@H](OC)[C@]34C1[C@H]([C@H](OC)[C@H]23)[C@@]1(OC(C)=O)C[C@H](OC)[C@@]2(O)C[C@]4(O)[C@@H]1[C@H]2OC(=O)c1ccccc1
inactive: Activity (MCF7) | inhibition [1] | Activity (Bel-7402) | inhibition (Liver microsomes) | Activity (HCT-8) | Activity (BGC-823) | Activity (A549) | Activity (WB-F344) | Activity (KETR3)

CCN1C[C@]2(COC)CC[C@H](OC)[C@]34C1[C@H](C[C@H]23)[C@]1(O)[C@H]2[C@@H](OC(=O)c3ccccc3)[C@](O)(C[C@H]24)[C@@H](OC)[C@@H]1O
inactive: Activity (MCF7) | inhibition [1] | Activity (Bel-7402) | inhibition (Liver microsomes) | Activity (HCT-8) | Activity (BGC-823) | Activity (A549) | Activity (WB-F344) | Activity (KETR3)

CCN1C[C@]2(COC)[C@H](O)C[C@H](OC)[C@]34C1[C@H]([C@H](OC)[C@H]23)[C@]1(OC(C)=O)[C@H]2[C@@H](OC(=O)c3ccccc3)[C@](O)(C[C@]24O)[C@@H](OC)[C@@H]1O
inactive: Activity (MCF7) | inhibition [1] | Activity (Bel-7402) | inhibition (Liver microsomes) | Activity (HCT-8) | Activity (BGC-823) | Activity (A549) | Activity (WB-F344) | Activity (KETR3)

CCN1C[C@]2(COC)CC[C@H](OC)[C@]34C1[C@H]([C@H](OC)[C@H]23)[C@]1(OC(C)=O)[C@H]2[C@@H](OC(=O)c3ccccc3)[C@](O)(C[C@H]24)[C@@H](OC)[C@@H]1O
inactive: Activity (MCF7) | inhibition [1] | Activity (Bel-7402) | inhibition (Liver microsomes) | Activity (HCT-8) | Activity (BGC-823) | Activity (A549) | Activity (WB-F344) | Activity (KETR3)
